Here are results for 1 molecule from patent US9801831B2, “Device for controlled release of a bioactive agent” (Nanyang Technological University, priority 2010, dated 2017).

This data set in a line: Solubility limit of paclitaxel in release buffer. The note with it: PBS/2% Tween-80 release buffer, pH 7.4, aqueous with cosolvent or surfactant or cyclodextrin. Type of data set: physicochemical.

Converted amounts (≈) assume the structure as drawn.

Experimental: The in-vitro release of paclitaxel was conducted in 2 mL of PBS/% Tween 80 release buffer (pH 7.4) at 37° C. using 6 mm punch-outs (1 punch-out/well) in triplicate. At predetermined time-points 2 mL of buffer was removed and another 2 mL replaced with PBS/Tween 80 release buffer, maintaining sink conditions throughout the release. Withdrawn aliquots (or standards/dissolutions samples) were filtered through a 0.2 μm PTFE syringe filter directly into HPLC vials and immediately capped. Paclitaxel was quantified with an Agilent Series 1100 HPLC (Santa Clara, Calif., USA) equipped with UV/Vis detector, autosampler, and column heater set to 35° C. A ZORBAX Eclipse XDB-C18 (5 μm) column of acetonitrile/water 60/40 (v/v) served as the mobile buffer, eluting the paclitaxel peak at ˜5.4 minutes with a flow rate 1.0 mL/min and the UV/Vis detector recording at 227 nm. A total dissolution study of the 6 mm discs in triplicate was conducted by dissolving the films in acetone and diluting in release buffer to determine the surface concentration of paclitaxel (μg/mm^2).

In turn, `CC(=O)O[C@H]1C(=O)[C@@]2(C)[C@H]([C@H](OC(=O)c3ccccc3)[C@]3(O)C[C@H](OC(=O)[C@H](O)[C@@H](NC(=O)c4ccccc4)c4ccccc4)C(C)=C1C3(C)C)[C@]1(OC(C)=O)CO[C@@H]1C[C@@H]2O` [paclitaxel] yielded a solubility of 20 µg/mL (≈ 23.4 µM).

By solubility is commonly meant how much of the substance goes into solution per volume. Low readings indicate little dissolved substance, high ones much dissolved substance.
